Tested on: Jurkat cells
Test: (r) Cell cytotoxicity assay
Type: cell-based, human
Settings: 24 hours
Experimental: 1×10^5 Jurkat cells (immortalised human T lymphocytes) are added to the appropriate number of wells of a 96 well plate in 100 μL of media (RPMI supplemented with 10% foetal bovine serum). 1 μL of DMSO control (final concentration 1.0% v/v) or test compound (final concentration 20, 5 or 1 μg/mL) is added to the wells and incubated at 37° C., 5% CO2. After 24 hours, the plate is centrifuged at 1200 rpm for 3 minutes and the supernatant discarded. Cells are then resuspended in 150 μL (final concentration 7.5 μg/mL) of propidium iodide (PI) in PBS and incubated at 37° C., 5% CO2 for 15 minutes. After 15 minutes, cells are analysed by flow cytometry (BD accuri) using the FL3 window. The % viability is calculated as the % of cells that are PI negative in the test wells normalised to the DMSO control.

| SMILES | % Viability at 1 μg/mL [%] | % Viability at 5 μg/mL [%] | % Viability at 20 μg/mL [%] |
| --- | --- | --- | --- |
| COc1cc(Nc2cc(Oc3ccc(NC(=O)Nc4cc(C(C)(C)C)cc(NS(C)(=O)=O)c4OC)c4ccccc34)ccn2)ccc1C(=O)NCCCC[C@H](N)C(=O)O [17(bu), (S)-2-Amino-6-(4-((4-((4-(3-(5-(tert-butyl)-2-methoxy-3-(methylsulfonamido)phenyl)-ureido)naphthalen-1-yl)oxy)pyridin-2-yl)amino)-2-methoxybenzamido)hexanoic acid] | 92.6 | 92.6 | 91.7 |
| COc1cc(Nc2nccc(Oc3ccc(NC(=O)Nc4cc(C(C)(C)C)cc(NS(C)(=O)=O)c4OC)c4ccccc34)n2)ccc1C(=O)NCCCN1CCOCC1 [17(ao), 4-((4-((4-(3-(5-(tert-Butyl)-2-methoxy-3-(methylsulfonamido)phenyl)ureido)naphthalen-1-yl)oxy)pyrimidin-2-yl)amino)-2-methoxy-N-(3-morpholinopropyl)benzamide] | 89.2 | 16.5 | 1.6 |
| COc1cc(Nc2cc(Oc3ccc(NC(=O)Nc4cc(C(C)(C)C)cc(NS(C)(=O)=O)c4OC)c4ccccc34)ccn2)ccc1C(=O)NC[C@H](O)[C@@H](O)[C@H](O)[C@H](O)CO [17(bw), 4-((4-((4-(3-(5-(tert-Butyl)-2-methoxy-3-(methylsulfonamido)phenyl)ureido)naphthalen-1-yl)oxy)pyridin-2-yl)amino)-2-methoxy-N-((2S,3R,4R,5R)-2,3,4,5,6-pentahydroxyhexyl) benzamide] | 94.5 | 96.2 | 92.4 |
| COc1cc(Nc2cc(Oc3ccc(NC(=O)Nc4cc(C(C)(C)C)cc(NS(C)(=O)=O)c4OC)c4ccccc34)ccn2)cc(OC)c1C(=O)NCCCN1CCN(C)CC1 [17(au), 4-((4-((4-(3-(5-(tert-Butyl)-2-methoxy-3-(methylsulfonamido)phenyl)ureido)naphthalen-1-yl)oxy)pyridin-2-yl)amino)-2,6-dimethoxy-N-(3-(4-methylpiperazin-1-yl)propyl)benzamide] | 94.0 | 91.8 | 80.6 |
| COc1cc(Nc2cc(Oc3ccc(NC(=O)Nc4cc(NS(C)(=O)=O)cc(C(C)(C)C)c4)c4ccccc34)ccn2)ccc1C(=O)NCCN1CCN(C)CC1 [17(bo), 4-((4-((4-(3-(3-(tert-Butyl)-5-(methylsulfonamido)phenyl)ureido)naphthalen-1-yl)oxy)pyridin-2-yl)amino)-2-methoxy-N-(2-(4-methylpiperazin-1-yl)ethyl)benzamide] | 98.5 | 45.3 | 14.0 |
| COc1cc(Nc2nccc(Oc3ccc(NC(=O)Nc4cc(C(C)(C)C)cc(NS(C)(=O)=O)c4OC)c4ccccc34)n2)ccc1S(N)(=O)=O [Example 28, 4-((4-((4-(3-(5-(tert-Butyl)-2-methoxy-3-(methylsulfonamido)phenyl)ureido)naphthalen-1-yl)oxy)pyrimidin-2-yl)amino)-2-methoxybenzenesulfonamide] | 100.0 | 41.1 | 18.9 |
| COc1cc(Nc2cc(Oc3ccc(NC(=O)Nc4cc(C(C)(C)C)cc(NS(C)(=O)=O)c4OC)c4ccccc34)ccn2)ccc1C(=O)N(C)CCN1CCOCC1 [17(ab), 4-[[4-[[4-[[5-tert-butyl-3-(methanesulfonamido)-2-methoxy-phenyl]carbamoylamino]-1-naphthyl]oxy]-2-pyridyl]amino]-2-methoxy-N-methyl-N-(2-morpholinoethyl)benzamide] | 108.6 | 95.6 | 93.9 |
| COc1cc(Nc2cc(Oc3ccc(NC(=O)Nc4cc(C(C)(C)C)cc(NS(C)(=O)=O)c4OC)c4ccccc34)ccn2)ccc1C(=O)NCCN1CCN(C(=O)CC[C@H](N)C(=O)O)CC1 [17(cl), (S)-2-Amino-5-(4-(2-(4-((4-((4-(3-(5-(tert-butyl)-2-methoxy-3-(methylsulfonamido)-phenyl)ureido)naphthalen-1-yl)oxy)pyridin-2-yl)amino)-2-methoxybenzamido)ethyl)piperazin-1-yl)-5-oxopentanoic acid] | 93.6 | 94.0 | 93.7 |
| COc1cc(Nc2cc(Oc3ccc(NC(=O)Nc4cc(C(C)(C)C)cc(C(=O)NCCO)c4OC)c4ccccc34)ccn2)ccc1C(=O)NCCN1CC[S+]([O-])CC1 [Example 32, 5-(tert-Butyl)-N-(2-hydroxyethyl)-2-methoxy-3-(3-(4-((2-((3-methoxy-4-((2-(1-oxidothiomorpholino)ethyl)carbamoyl)phenyl)amino)pyridin-4-yl)oxy)naphthalen-1-yl)ureido)benzamide] | 95.4 | 43.1 | 2.5 |
| COc1cc(Nc2nccc(Oc3ccc(NC(=O)Nc4cc(C(C)(C)C)cc(NS(C)(=O)=O)c4OC)c4ccccc34)n2)ccc1C(=O)NCCCN1CCN(C)CC1 [17(ap), 4-((4-((4-(3-(5-(tert-Butyl)-2-methoxy-3-(methylsulfonamido)phenyl)ureido)naphthalen-1-yl)oxy)pyrimidin-2-yl)amino)-2-methoxy-N-(3-(4-methylpiperazin-1-yl)propyl)benzamide] | 97.8 | 40.1 | 0.6 |
| COc1cc(Nc2cc(Oc3ccc(NC(=O)Nc4cc(C(C)(C)C)cc(NS(C)(=O)=O)c4OC)c4ccccc34)ccn2)ccc1C(=O)NCC(CO)(CO)CO [Example 38, 4-((4-((4-(3-(5-(tert-Butyl)-2-methoxy-3-(methylsulfonamido)phenyl)ureido)naphthalen-1-yl)oxy)pyridin-2-yl)amino)-N-(3-hydroxy-2,2-bis(hydroxymethyl)propyl)-2-methoxybenzamide] | 90.0 | 63.7 | 6.0 |
| COc1cc(Nc2cc(Oc3ccc(NC(=O)Nc4cc(NS(C)(=O)=O)cc(C(C)(C)C)c4)c4ccccc34)ccn2)ccc1C(=O)NCCC1CCN(C)CC1 [17(bs), 4-((4-((4-(3-(3-(tert-Butyl)-5-(methylsulfonamido)phenyl)ureido)naphthalen-1-yl)oxy)pyridin-2-yl)amino)-2-methoxy-N-(2-(1-methylpiperidin-4-yl)ethyl)benzamide] | 90.9 | 48.7 | 0.3 |
| COc1cc(Nc2cc(Oc3ccc(NC(=O)Nc4cc(C(C)(C)C)cc(NS(C)(=O)=O)c4OC)c4ccccc34)ccn2)ccc1C(=O)NC(C)CN1CCN(C)CC1 (stereo not drawn) [17(bl), 4-((4-((4-(3-(5-(tert-Butyl)-2-methoxy-3-(methylsulfonamido)phenyl)ureido)naphthalen-1-yl)oxy)pyridin-2-yl)amino)-2-methoxy-N-(1-(4-methylpiperazin-1-yl)propan-2-yl)benzamide] | 103.6 | 0.2 | 0.5 |
| COc1cc(Nc2cc(Oc3ccc(NC(=O)Nc4cc(C(C)(C)C)cc(NS(C)(=O)=O)c4OC)c4ccccc34)ccn2)ccc1C(=O)NCCOCCO [17(bm), 4-((4-((4-(3-(5-(tert-Butyl)-2-methoxy-3-(methylsulfonamido)phenyl)ureido)naphthalen-1-yl)oxy)pyridin-2-yl)amino)-N-(2-(2-hydroxyethoxy)ethyl)-2-methoxybenzamide] | 103.6 | 0.2 | 0.5 |
| COc1cc(Nc2cc(Oc3ccc(NC(=O)Nc4cc(C(C)(C)C)cc(NS(C)(=O)=O)c4OC)c4ccccc34)ccn2)ccc1-n1ccccc1=O [Example 31, N-(5-(tert-Butyl)-2-methoxy-3-(3-(4-((2-((3-methoxy-4-(2-oxopyridin-1 (2H)-yl)phenyl)amino)-pyridin-4-yl)oxy)naphthalen-1-yl)ureido)phenyl)methanesulfonamide] | 99.9 | 97.6 | 99.0 |
| COc1cc(Nc2cc(Oc3ccc(NC(=O)Nc4cc(C(C)(C)C)cc(NS(C)(=O)=O)c4OC)c4ccccc34)ccn2)ccc1S(=O)(=O)N(C)CCN1CCN(C)CC1 [17(bb), 4-((4-((4-(3-(5-(tert-Butyl)-2-methoxy-3-(methylsulfonamido)phenyl)ureido)naphthalen-1-yl)oxy)pyridin-2-yl)amino)-2-methoxy-N-methyl-N-(2-(4-methylpiperazin-1-yl)ethyl)benzenesulfonamide] | 90.9 | 19.2 | 0.2 |
| COc1cc(Nc2cc(Oc3ccc(NC(=O)Nc4cc(C(C)(C)C)cc(NS(C)(=O)=O)c4OC)c4ccccc34)ccn2)ccc1C(=O)NCCC(=O)O [17(ay), 3-(4-((4-((4-(3-(5-(tert-Butyl)-2-methoxy-3-(methylsulfonamido)phenyl)ureido)-naphthalen-1-yl)oxy)pyridin-2-yl)amino)-2-methoxybenzamido)propanoic acid] | 95.3 | 94.6 | 90.1 |
| COc1cc(Nc2cc(Oc3ccc(NC(=O)Nc4cc(C(C)(C)C)cc(NS(C)(=O)=O)c4OC)c4ccccc34)ccn2)ccc1C(=O)NCCC(=O)N1C[C@H](O)[C@@H](O)[C@H](O)[C@H]1CO [17(cf), 4-((4-((4-(3-(5-(tert-Butyl)-2-methoxy-3-(methylsulfonamido)phenyl)ureido)naphthalen-1-yl)oxy)pyridin-2-yl)amino)-2-methoxy-N-(3-oxo-3-((2R,3R,4R,5S)-3,4,5-trihydroxy-2-(hydroxymethyl)piperidin-1-yl)propyl)benzamide] | 96.7 | 96.7 | 96.8 |

— patent US10125100B2, “Kinase inhibitors” (Respivert Limited, priority 2014, dated 2018)
